From patent US20110319362A1, “STAT3 LIGANDS AND THERAPEUTIC USES THEREOF” (priority 2008, published 2011)
Read-outs that look alike come from different tables or passages of the source. Values belong to the molecule of their own block, whether it stands above or below them.

Columns and labels:
[1] = target: T1, STAT3 protein (Homo sapiens, UniProt P40763); assay: In vitro competitive STAT3 binding assay (fluorescence polarization)
T1 construct: human STAT3 protein (residues 122-722) fused to His-tag; His-tag
T1 sequence (P40763 122-722): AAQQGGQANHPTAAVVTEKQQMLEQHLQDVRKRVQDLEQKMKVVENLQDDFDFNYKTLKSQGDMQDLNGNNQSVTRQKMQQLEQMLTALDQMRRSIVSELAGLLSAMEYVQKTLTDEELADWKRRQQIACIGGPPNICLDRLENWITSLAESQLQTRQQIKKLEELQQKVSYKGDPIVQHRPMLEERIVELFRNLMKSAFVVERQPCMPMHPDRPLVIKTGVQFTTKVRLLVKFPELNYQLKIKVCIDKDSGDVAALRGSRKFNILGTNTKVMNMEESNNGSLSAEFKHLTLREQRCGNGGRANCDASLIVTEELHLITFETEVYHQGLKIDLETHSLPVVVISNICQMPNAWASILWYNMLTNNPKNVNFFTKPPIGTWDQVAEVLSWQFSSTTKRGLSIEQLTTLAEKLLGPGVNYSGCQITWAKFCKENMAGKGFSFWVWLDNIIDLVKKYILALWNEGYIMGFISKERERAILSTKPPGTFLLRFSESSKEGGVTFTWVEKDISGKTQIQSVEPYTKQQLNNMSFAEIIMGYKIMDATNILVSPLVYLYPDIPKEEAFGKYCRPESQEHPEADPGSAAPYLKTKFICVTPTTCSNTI
From the text: To quantitatively determine the binding affinities of STAT3 inhibitors to STAT3 protein, a sensitive and quantitative in vitro binding assay was developed based upon fluorescence polarization (FP) method. For this FP assay, 5-carboxyfluorescein (5-Fam) was coupled to a phosphopeptide (phospho-Tyr-Leu-Pro-Gln-Thr-Val-amide) with two beta-alanine and one glycine residues as the spacer between 5-Fam and the phosphopeptide to obtain 5-Fam-beta-Ala-beta-Ala-Gly-phospho-Tyr-Leu-Pro-Gln-Thr-Val-amide as the fluorescently tagged tracer, which was named as STT2 peptide. […] The recombinant human STAT3 protein (residues 122-722) fused to His-tag was stable and soluble.
Competitive binding experiments were carried out using 150 nM of STAT3 protein and 5 nM of STT2 peptide with different concentrations of a tested STAT3 inhibitor. For each experiment, two controls were included. One control contained STAT3 protein and STT2 peptide, and the second control contained STT2 peptide only. The polarization values were measured after 2-3 hours of incubation using an ULTRA READER (Tecan U.S. Inc., Research Triangle Park, N.C.). IC50 values, the inhibitor concentration at which 50% of the fluorescently tagged STT2 peptide is displaced by STAT3 inhibitors, was determined from a plot using nonlinear least-squares analysis using GRAPHPAD PRISM software (GraphPad Software, Inc., San Diego, Calif.). […]

[2] = test system: MDA-MB-231 cancer cell line; assay: Cell growth assay (WST-8); type: cell-based; settings: Homo sapiens, MDA-MB-231, 96 h; WST-8, 4 days; read-out: Inhibition of cell growth IC50, MDA-MB-231 cancer cell line
Description: (§1) The effect of STAT3 compounds on cell growth was evaluated by a WST-8 [2-(2-methoxy-4-nitrophenyl)-3-(4-nitrophenyl)-5-(2,4-disulfophenyl)-2H-tetrazolium, monosodium salt assay (Dojindo Molecular Technologies, Inc). Cells (3000-4000 cells in each well) were cultured in 96-well tissue culture plates in medium (200 μL) containing various concentrations of STAT3 compounds for 4 days. At the end of incubation, WST-8 dye (20 μL) was added to each well and incubated for an additional 1-3 h, and then the absorbance was measured in a microplate reader (Molecular Devices) at 450 nm. Cell growth inhibition was evaluated as the ratio of the absorbance of the sample to that of the control.

[3] = test system: MDA-MB-468 cancer cell line; assay: Cell growth assay (WST-8); type: cell-based; settings: Homo sapiens, MDA-MB-468, 96 h; WST-8, 4 days; read-out: Inhibition of cell growth IC50, MDA-MB-468 cancer cell line
Description: as §1

[4] = FP competitive binding, fluorescently tagged STT2 peptide tracer, read-out: Binding affinities to STAT3 IC50

SMILES: CCOC(=O)C(Oc1ccc(C[C@@H](C(=O)N[C@H]2CCCCC3CC[C@@H](C(=O)N[C@@H](CCCNC(C)=O)C(=O)NCc4ccccc4)N3C2=O)N(C)C)cc1)C(=O)OCC (stereo partly drawn)
IC50 [1, 4]: > 10 µM | IC50 [2]: > 100 µM | IC50 [3]: > 100 µM

SMILES: CCOC(=O)C(Oc1ccc(C[C@@H](C(=O)N[C@H]2CCCCC3CC[C@@H](C(=O)N[C@@H](Cc4c[nH]cn4)C(=O)NCc4ccccc4)N3C2=O)N(C)C)cc1)C(=O)OCC (stereo partly drawn)
IC50 [1, 4]: > 10 µM | IC50 [2]: > 100 µM | IC50 [3]: > 100 µM

SMILES: CN(C)[C@@H](Cc1ccc(OC(C(=O)O)C(=O)O)cc1)C(=O)N[C@H]1CCCCC2CC[C@@H](C(=O)N[C@@H](Cc3c[nH]cn3)C(=O)NCc3ccccc3)N2C1=O (stereo partly drawn)
IC50 [1, 4]: > 10 µM | IC50 [2]: > 100 µM | IC50 [3]: > 100 µM

IC50 [1, 4]: > 10 µM | IC50 [2]: > 100 µM | IC50 [3]: > 100 µM
SMILES: CC(=O)NCCC[C@H](NC(=O)[C@@H]1CCC2CCCC[C@H](NC(=O)[C@H](Cc3ccc(OC(C(=O)O)C(=O)O)cc3)N(C)C)C(=O)N21)C(=O)NCc1ccccc1 (stereo partly drawn)

SMILES: CC(=O)N[C@@H](Cc1ccc(OCP(=O)(O)O)cc1)C(=O)NC1CCCC[C@H]2CC[C@@H](C(=O)N[C@@H](Cc3c[nH]cn3)C(=O)NCc3ccccc3)N2C1=O (stereo in doubt) [Example 32]
IC50 [1]: < 30 µM | IC50 [2]: > 100 µM | IC50 [3]: > 100 µM

SMILES: CN(C)[C@@H](Cc1ccc(OCP(=O)(O)O)cc1)C(=O)NC1CCCC[C@H]2CC[C@@H](C(=O)N[C@@H](Cc3c[nH]cn3)C(=O)NCc3ccccc3)N2C1=O (stereo in doubt) [Example 33]
IC50 [1, 4]: > 100 µM | IC50 [2]: > 100 µM | IC50 [3]: > 100 µM

SMILES: CN(C)[C@@H](Cc1ccc(OCP(=O)(O)O)cc1)C(=O)NC1CCCC[C@H]2CC[C@@H](C(=O)N[C@@H](Cc3c[nH]cn3)C(=O)NCCc3ccccc3)N2C1=O (stereo in doubt) [Example 34]
IC50 [1, 4]: < 30 µM | IC50 [2]: > 100 µM | IC50 [3]: > 100 µM

SMILES: CN[C@@H](Cc1ccc(OCP(=O)(O)O)cc1)C(=O)NC1CCCC[C@H]2CC[C@@H](C(=O)N[C@@H](Cc3c[nH]cn3)C(=O)NCc3ccccc3)N2C1=O (stereo in doubt) [Example 35]
IC50 [1, 4]: < 100 µM | IC50 [2]: > 100 µM | IC50 [3]: > 100 µM

SMILES: CN(C)[C@@H](Cc1ccc(OP(=O)(O)O)cc1)C(=O)N[C@H]1CCCCC2CC[C@@H](C(=O)N[C@@H](CCC(N)=O)C(=O)NCc3ccccc3)N2C1=O (stereo in doubt) [Example 36]
IC50 [1, 4]: < 5 µM | IC50 [2]: > 100 µM | IC50 [3]: > 100 µM

SMILES: CN(C)[C@@H](Cc1ccc(OP(=O)(O)O)cc1)C(=O)N[C@H]1CCCCC2CC[C@@H](C(=O)N[C@@H](Cc3c[nH]cn3)C(=O)NCc3ccccc3)N2C1=O (stereo in doubt) [Example 39]
IC50 [1, 4]: < 10 µM | IC50 [2]: > 100 µM | IC50 [3]: > 100 µM

SMILES: CN[C@@H](Cc1ccc(OP(=O)(O)O)cc1)C(=O)N[C@H]1CCCCC2CC[C@@H](C(=O)N[C@@H](CCC(N)=O)C(=O)NCc3ccccc3)N2C1=O (stereo in doubt) [Example 40]
IC50 [1, 4]: < 1 µM | IC50 [2]: > 30 µM | IC50 [3]: > 100 µM

SMILES: NC(=O)CC[C@H](NC(=O)[C@@H]1CCC2CCCC[C@H](NC(=O)[C@H](Cc3ccc(OP(=O)(O)O)cc3)NC(=O)OCc3ccccc3)C(=O)N21)C(=O)NCc1ccccc1 (stereo in doubt) [Example 41]
IC50 [1]: < 1 µM | IC50 [2]: > 50 µM | IC50 [3]: > 100 µM

SMILES: CC(=O)N[C@@H](Cc1ccc(OP(=O)(O)O)cc1)C(=O)N[C@H]1CCCC[C@H]2CC[C@@H](C(=O)N[C@@H](CCC(N)=O)C(=O)NCc3ccccc3)N2C1=O [Example 1]
IC50 [1, 4]: < 1 µM | IC50 [2]: > 20 µM | IC50 [3]: > 100 µM

SMILES: NC(=O)CC[C@H](NC(=O)[C@@H]1CC[C@@H]2CCCC[C@H](NC(=O)[C@H](Cc3ccc(OP(=O)(O)O)cc3)NC(=O)CCc3ccccc3)C(=O)N21)C(=O)NCc1ccccc1 [Example 2]
IC50 [1]: < 1 µM | IC50 [2]: > 20 µM | IC50 [3]: > 100 µM

IC50 [1, 4]: > 100 µM | IC50 [2]: > 30 µM | IC50 [3]: > 100 µM
SMILES: CC(C)(C)OC(=O)CCc1ccc(CCC(=O)N[C@H]2CCCC[C@H]3CC[C@@H](C(=O)NCC[C@H](O)CO)N3C2=O)cc1 [Example 3]

IC50 [1, 4]: > 100 µM | IC50 [2]: > 30 µM | IC50 [3]: > 100 µM
SMILES: O=C(O)CCc1ccc(CCC(=O)N[C@H]2CCCC[C@H]3CC[C@@H](C(=O)NCC[C@H](O)CO)N3C2=O)cc1 [Example 4]

IC50 [1, 4]: > 100 µM | IC50 [2]: > 50 µM | IC50 [3]: > 100 µM
SMILES: NC(=O)CC[C@H](NC(=O)[C@@H]1CC[C@@H]2CCCC[C@H](NC(=O)CCc3ccc(CCC(=O)O)cc3)C(=O)N21)C(=O)NCc1ccccc1 [Example 5]

SMILES: CC(=O)N[C@@H](Cc1ccc(O)cc1)C(=O)N[C@H]1CCCC[C@H]2CC[C@@H](C(=O)N[C@@H](CCC(N)=O)C(=O)NCc3ccccc3)N2C1=O [Example 6]
IC50 [1, 4]: > 100 µM | IC50 [2]: > 100 µM | IC50 [3]: > 100 µM

SMILES: CC(=O)N[C@@H](Cc1ccc(OCC(=O)O)cc1)C(=O)N[C@H]1CCCC[C@H]2CC[C@@H](C(=O)N[C@@H](CCC(N)=O)C(=O)NCc3ccccc3)N2C1=O [Example 7]
IC50 [1, 4]: > 50 µM | IC50 [2]: > 100 µM | IC50 [3]: > 100 µM

SMILES: C[C@H](NC(=O)[C@@H]1CC[C@@H]2CCCC[C@H](NC(=O)[C@H](Cc3ccc(OP(=O)(O)O)cc3)NC(=O)OCc3ccccc3)C(=O)N21)C(=O)NCc1ccccc1 [Example 8]
IC50 [1]: > 20 µM | IC50 [2]: > 10 µM | IC50 [3]: > 10 µM

SMILES: O=C(N[C@@H](Cc1ccc(OP(=O)(O)O)cc1)C(=O)N[C@H]1CCCC[C@H]2CC[C@@H](Cn3cc(-c4ccccc4)nn3)N2C1=O)OCc1ccccc1 [Example 9]
IC50 [1, 4]: > 20 µM | IC50 [2]: > 5 µM | IC50 [3]: > 5 µM

SMILES: C[C@H](NC(=O)[C@@H]1CC[C@@H]2CCCC[C@H](NC(=O)[C@@H](N)Cc3ccc(OC(C(=O)O)C(=O)O)cc3)C(=O)N21)C(=O)NCc1ccccc1 [Example 10]
IC50 [1, 4]: > 100 µM | IC50 [2]: > 50 µM | IC50 [3]: > 100 µM

SMILES: N=C(N)NCCC[C@H](NC(=O)[C@@H]1CC[C@@H]2CCCC[C@H](NC(=O)[C@H](Cc3ccc(OP(=O)(O)O)cc3)NC(=O)OCc3ccccc3)C(=O)N21)C(=O)NCc1ccccc1 [Example 11]
IC50 [1]: > 5 µM | IC50 [2]: > 50 µM | IC50 [3]: > 100 µM

SMILES: N=C(N)NCCC[C@H](NC(=O)[C@@H]1CC[C@@H]2CCCC[C@H](NC(=O)[C@@H](N)Cc3ccc(OP(=O)(O)O)cc3)C(=O)N21)C(=O)NCc1ccccc1 [Example 12]
IC50 [1, 4]: > 5 µM | IC50 [2]: < 50 µM | IC50 [3]: > 100 µM

SMILES: CNC(=O)[C@H](CCC(N)=O)NC(=O)[C@@H]1CC[C@@H]2CCCC[C@H](NC(=O)[C@H](Cc3ccc(OP(=O)(O)O)cc3)NC(=O)OCc3ccccc3)C(=O)N21 [Example 13]
IC50 [1]: < 1 µM | IC50 [2]: > 100 µM | IC50 [3]: > 100 µM

SMILES: NCCCCNC(=O)[C@@H]1CC[C@@H]2CCCC[C@H](NC(=O)[C@H](Cc3ccc(OP(=O)(O)O)cc3)NC(=O)OCc3ccccc3)C(=O)N21 [Example 14]
IC50 [1, 4]: < 10 µM | IC50 [2]: > 100 µM | IC50 [3]: > 100 µM

SMILES: CCCNC(=O)[C@@H]1CC[C@@H]2CCCC[C@H](NC(=O)[C@H](Cc3ccc(OP(=O)(O)O)cc3)NC(=O)OCc3ccccc3)C(=O)N21 [Example 15]
IC50 [1, 4]: < 30 µM | IC50 [2]: > 30 µM | IC50 [3]: > 100 µM

SMILES: NC(=O)CCCNC(=O)[C@@H]1CCC2CCCC[C@H](NC(=O)[C@H](Cc3ccc(OP(=O)(O)O)cc3)NC(=O)OCc3ccccc3)C(=O)N21 (stereo partly drawn) [Example 16]
IC50 [1, 4]: < 30 µM | IC50 [2]: > 100 µM | IC50 [3]: > 100 µM

SMILES: CNC(=O)CCCNC(=O)[C@@H]1CC[C@@H]2CCCC[C@H](NC(=O)[C@H](Cc3ccc(OP(=O)(O)O)cc3)NC(=O)OCc3ccccc3)C(=O)N21 [Example 17]
IC50 [1, 4]: < 30 µM | IC50 [2]: > 100 µM | IC50 [3]: > 100 µM

SMILES: CN(C)C(=O)CCCNC(=O)[C@@H]1CC[C@@H]2CCCC[C@H](NC(=O)[C@H](Cc3ccc(OP(=O)(O)O)cc3)NC(=O)OCc3ccccc3)C(=O)N21 [Example 18]
IC50 [1, 4]: < 30 µM | IC50 [2]: > 100 µM | IC50 [3]: > 100 µM

SMILES: CNCCCNC(=O)[C@@H]1CC[C@@H]2CCCC[C@H](NC(=O)[C@H](Cc3ccc(OP(=O)(O)O)cc3)NC(=O)OCc3ccccc3)C(=O)N21 [Example 19]
IC50 [1, 4]: < 100 µM | IC50 [2]: > 100 µM | IC50 [3]: > 100 µM

SMILES: NCCC[C@H](NC(=O)[C@@H]1CC[C@@H]2CCCC[C@H](NC(=O)[C@H](Cc3ccc(OP(=O)(O)O)cc3)NC(=O)OCc3ccccc3)C(=O)N21)C(=O)NCc1ccccc1 [Example 20]
IC50 [1]: < 10 µM | IC50 [2]: > 50 µM | IC50 [3]: > 100 µM
